Assay results taken from ChEMBL document CHEMBL5729401, “Inhibitors of Rho associated coiled-coil containing protein kinase” (2022).

Molecular target: Rho-associated protein kinase 2 (Homo sapiens, UniProt O75116)
Assay: Z-lyte assay: Compounds activities were measured by Z'-lyte kinase kit (ThermoFisher Scientific). The percent inhibition rate was calculated by normalizing the kinase activity value obtained with 1 μM compound treatment against DMSO control value. IC50s were calculated using the GraphPad Prism software with kinase activities data that were collected from 9 points serial dilution of compounds treatment.

Sequence of Rho-associated protein kinase 2 (O75116 whole entry): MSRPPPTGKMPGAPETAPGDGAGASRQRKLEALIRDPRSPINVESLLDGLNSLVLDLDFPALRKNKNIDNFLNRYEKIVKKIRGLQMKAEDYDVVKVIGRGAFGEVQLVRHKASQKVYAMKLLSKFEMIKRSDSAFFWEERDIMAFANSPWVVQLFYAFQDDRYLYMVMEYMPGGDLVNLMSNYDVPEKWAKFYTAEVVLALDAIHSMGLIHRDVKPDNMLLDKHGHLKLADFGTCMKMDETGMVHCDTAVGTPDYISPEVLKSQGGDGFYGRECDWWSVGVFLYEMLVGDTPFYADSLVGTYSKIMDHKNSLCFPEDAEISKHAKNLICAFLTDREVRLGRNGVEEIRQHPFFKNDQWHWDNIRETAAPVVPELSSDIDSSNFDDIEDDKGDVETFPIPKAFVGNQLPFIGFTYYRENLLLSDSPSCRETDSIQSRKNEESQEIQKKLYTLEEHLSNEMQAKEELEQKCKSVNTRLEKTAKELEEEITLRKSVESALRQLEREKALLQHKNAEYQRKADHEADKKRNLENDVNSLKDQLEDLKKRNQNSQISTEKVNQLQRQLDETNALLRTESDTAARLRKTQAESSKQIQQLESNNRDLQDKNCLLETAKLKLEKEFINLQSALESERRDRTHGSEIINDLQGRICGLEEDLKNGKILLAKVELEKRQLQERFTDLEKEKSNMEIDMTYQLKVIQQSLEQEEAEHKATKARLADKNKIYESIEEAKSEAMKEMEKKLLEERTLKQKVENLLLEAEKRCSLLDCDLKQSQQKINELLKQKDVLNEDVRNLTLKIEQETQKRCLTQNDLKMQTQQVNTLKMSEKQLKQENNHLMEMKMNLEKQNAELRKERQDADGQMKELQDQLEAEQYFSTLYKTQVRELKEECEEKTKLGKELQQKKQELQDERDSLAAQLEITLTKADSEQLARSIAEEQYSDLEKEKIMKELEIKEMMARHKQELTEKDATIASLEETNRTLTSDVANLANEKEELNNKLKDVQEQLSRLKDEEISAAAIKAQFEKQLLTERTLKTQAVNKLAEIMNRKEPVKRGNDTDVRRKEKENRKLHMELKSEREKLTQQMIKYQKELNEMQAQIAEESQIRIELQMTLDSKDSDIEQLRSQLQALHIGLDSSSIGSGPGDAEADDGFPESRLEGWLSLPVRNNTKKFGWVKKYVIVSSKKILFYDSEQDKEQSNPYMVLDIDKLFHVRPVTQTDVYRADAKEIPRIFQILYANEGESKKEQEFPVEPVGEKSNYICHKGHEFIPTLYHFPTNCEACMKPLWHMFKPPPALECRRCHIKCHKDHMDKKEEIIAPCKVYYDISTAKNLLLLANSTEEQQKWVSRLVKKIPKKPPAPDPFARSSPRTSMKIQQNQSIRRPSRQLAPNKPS

IC50: 21 nM
SMILES: CNC(C(=O)Nc1ccc(-c2cn[nH]c2)cc1)c1ccc(OC)c(F)c1 (stereo unspecified)
